# Laboratory results: ChEMBL document CHEMBL1123283, “Quinazoline antifolates inhibiting thymidylate synthase: variation of the amino acid” (1986)
# Columns and labels:
# [1] = biological target: Thymidylate synthase (Mus musculus) (UniProt P07607)
# Description: Inverse relative potency for the inhibition of L1210 thymidylate synthase
# L1210 = experiment: Inhibitory dose for L1210 cells in culture. Not tested at higher concentrations because of their limited solubility; assay type: functional; conditions: Mus musculus, read-out: ID50 (the source's name)
# Thymidylate synthase (Mus musculus), sequence (P07607 whole entry, looked up): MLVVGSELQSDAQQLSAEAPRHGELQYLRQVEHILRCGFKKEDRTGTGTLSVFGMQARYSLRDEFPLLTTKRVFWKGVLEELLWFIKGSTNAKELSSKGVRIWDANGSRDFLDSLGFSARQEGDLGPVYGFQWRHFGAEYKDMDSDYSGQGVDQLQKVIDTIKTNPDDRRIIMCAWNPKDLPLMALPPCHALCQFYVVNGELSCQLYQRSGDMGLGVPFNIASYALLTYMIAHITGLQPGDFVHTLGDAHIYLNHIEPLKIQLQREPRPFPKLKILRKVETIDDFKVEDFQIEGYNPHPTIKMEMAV
SMILES,Potency [1],IC50 (L1210) [µM]
C#CCN(Cc1ccc2nc(N)nc(O)c2c1)c1ccc(C(=O)NC(CCC(=O)OCC)C(=O)OCC)cc1 (stereo not drawn),> 62,52
C#CCN(Cc1ccc2nc(N)nc(O)c2c1)c1ccc(C(=O)NC(CC(=O)O)C(=O)O)cc1 (stereo not drawn),8.9,> 137
C#CCN(Cc1ccc2nc(N)nc(O)c2c1)c1ccc(C(=O)NC(C)C(=O)O)cc1 (stereo not drawn),5.2,> 10
C#CCN(Cc1ccc2[nH]c(N)nc(=O)c2c1)c1ccc(C(=O)NC(CCC(=O)O)C(=O)O)cc1 (stereo not drawn),–,5
C#CCN(Cc1ccc2nc(N)nc(O)c2c1)c1ccc(C(=O)NCC(=O)O)cc1,20.7,> 100
C#CCN(Cc1ccc2nc(N)nc(O)c2c1)c1ccc(C(=O)O)cc1,84,> 200
C#CCN(Cc1ccc2nc(N)nc(O)c2c1)c1ccc(CCCC(=O)O)cc1,333,> 10
